Reference: US7125984B2, “Glucuronofucan sulfate” (Takara Bio Inc., priority 2000, dated 2006)

Tests used:
endo-α-L-fucosidase = assay: effect of calcium salt, protein and sodium chloride on the enzymatic reaction of endo-α-L-fucosidase; assay type: biochemical, Fucophilus fucoidanolyticus strain SI-1234; details: for activation of endo-α-L-fucosidase (relative activity versus concentration in the reaction system): result in words
Text: (§1) Then, the relationship between the relative activity of the α-D-glucuronidase or the endo-α-L-fucosidase of the present invention and the concentration of calcium chloride contained in the reaction system was examined.
(§2) Then, the relationship between the relative activity of the α-D-glucuronidase or the endo-α-L-fucosidase of the present invention and the concentration of bovine serum albumin contained in the reaction system was examined.
(§3) Then, the relationship between the relative activity of the α-D-glucuronidase or the endo-α-L-fucosidase of the present invention and the concentration of sodium chloride contained in the reaction system was examined.

α-D-glucuronidase = assay: effect of calcium salt, protein and sodium chloride on the enzymatic reaction of α-D-glucuronidase; assay type: biochemical, Fucophilus fucoidanolyticus strain SI-1234; details: for activation of α-D-glucuronidase (relative activity versus concentration in the reaction system): result in words
Text: as §1, §2, §3

[1] = oligosaccharide having a low molecular weight as substrate
[2] = sulfated glucuronofucan having a high molecular weight as substrate

Compound	activation of endo-α-L-fucosidase (relative activity versus concentration in the reaction system) (endo-α-L-fucosidase)	activation of α-D-glucuronidase (relative activity versus concentration in the reaction system) (α-D-glucuronidase)	activation of endo-α-L-fucosidase (endo-α-L-fucosidase; [1])	activation of endo-α-L-fucosidase (endo-α-L-fucosidase; [2])	activation of α-D-glucuronidase (α-D-glucuronidase; [1])	activation of α-D-glucuronidase (α-D-glucuronidase; [2])
[Ca+2].[Cl-].[Cl-] [calcium chloride]	activated	activated				
[Cl-].[Na+] [sodium chloride]			not activated	activates	not activated	activates
bovine serum albumin: protein added to the reaction system as enzyme activator	activated	activated				
